According to the supplement of paper PMC13380429:

How the values were obtained:
Settings in all cases: 72 h
HepG2 [1] = test: cell viability relative to DMSO; higher = less toxic
Calu-3 [2] = test: as above
U2OS [3] = test: as above
Vero E6 [4] = test: as above
Caco-2 [5] = test: as above
HepG2 [6] = test: relative viability EC50 (midpoint between 100% and the lowest measured viability); higher = less toxic
Calu-3 [7] = test: as above
U2OS [8] = test: as above
Vero E6 [9] = test: as above
Caco-2 [10] = test: as above
HepG2 [11] = test: drug sensitivity score (DSS) for viability; higher = more toxic; extreme values may be limits of the assay
Calu-3 [12] = test: as above
U2OS [13] = test: as above
Vero E6 [14] = test: as above
Caco-2 [15] = test: as above

Question: With `CC(C)c1cc(-c2ccc(F)c3ccccc23)nc(N)n1` as the compound, how does the cell viability (HepG2 [1]; 1 nM) read?
Answer: The cell viability was 103%.

Question: And the cell viability (HepG2 [1]; 10 nM)?
Answer: Its cell viability is 119%.

Question: What about the cell viability (HepG2 [1]; 100 nM) of the same compound?
Answer: Its cell viability is 99.2%.

Question: And the cell viability (HepG2 [1]; 1000 nM)?
Answer: The cell viability was 99.3%.

Question: And the cell viability (HepG2 [1]; 10000 nM)?
Answer: The cell viability was 113%.

Question: And the cell viability (Calu-3 [2]; 1 nM)?
Answer: Its cell viability is 80.3%.

Question: And the cell viability (Calu-3 [2]; 10 nM)?
Answer: Its cell viability is 103%.

Question: What about the cell viability (Calu-3 [2]; 100 nM) of the same compound?
Answer: The cell viability was 99.7%.

Question: And the cell viability (Calu-3 [2]; 1000 nM)?
Answer: The cell viability was 107%.

Question: What about the cell viability (Calu-3 [2]; 10000 nM) of the same compound?
Answer: Its cell viability is 108%.

Question: And the cell viability (U2OS [3]; 1 nM)?
Answer: The cell viability was 93.1%.

Question: What about the cell viability (U2OS [3]; 10 nM) of the same compound?
Answer: The cell viability was 96.6%.

Question: And the cell viability (U2OS [3]; 100 nM)?
Answer: The cell viability was 98.7%.

Question: And the cell viability (U2OS [3]; 1000 nM)?
Answer: The cell viability was 97.9%.

Question: And the cell viability (U2OS [3]; 10000 nM)?
Answer: The cell viability was 100%.

Question: And the cell viability (Vero E6 [4]; 1 nM)?
Answer: Its cell viability is 94.1%.

Question: What about the cell viability (Vero E6 [4]; 10 nM) of the same compound?
Answer: Its cell viability is 98.6%.

Question: And the cell viability (Vero E6 [4]; 100 nM)?
Answer: The cell viability was 98.8%.

Question: And the cell viability (Vero E6 [4]; 1000 nM)?
Answer: The cell viability was 102%.

Question: And the cell viability (Vero E6 [4]; 10000 nM)?
Answer: The cell viability was 107%.

Question: And the cell viability (Caco-2 [5]; 1 nM)?
Answer: Its cell viability is 90.7%.

Question: And the cell viability (Caco-2 [5]; 10 nM)?
Answer: The cell viability was 101%.

Question: What about the cell viability (Caco-2 [5]; 100 nM) of the same compound?
Answer: Its cell viability is 102%.

Question: And the cell viability (Caco-2 [5]; 1000 nM)?
Answer: The cell viability was 92.7%.

Question: What about the cell viability (Caco-2 [5]; 10000 nM) of the same compound?
Answer: The cell viability was 101%.

Question: What about the “relative viability EC50” value (HepG2 [6]) of the same compound?
Answer: Its value is > 10 µM.

Question: What about the “relative viability EC50” value (Calu-3 [7]) of the same compound?
Answer: The value was > 10 µM.

Question: What about the “relative viability EC50” value (U2OS [8]) of the same compound?
Answer: The value was > 10 µM.

Question: What about the “relative viability EC50” value (Vero E6 [9]) of the same compound?
Answer: The value was > 10 µM.

Question: And the “relative viability EC50” value (Caco-2 [10])?
Answer: The value was > 10 µM.

Question: And the drug sensitivity score (HepG2 [11])?
Answer: The drug sensitivity score was 0.

Question: What about the drug sensitivity score (Calu-3 [12]) of the same compound?
Answer: The drug sensitivity score was 0.

Question: And the drug sensitivity score (U2OS [13])?
Answer: The drug sensitivity score was 0.

Question: And the drug sensitivity score (Vero E6 [14])?
Answer: Its drug sensitivity score is 0.

Question: And the drug sensitivity score (Caco-2 [15])?
Answer: Its drug sensitivity score is 0.

Question: What does the source list for `CC1(C)OC[C@H](NC(=O)Nc2ccc(Br)cc2Br)[C@H](c2ccccc2)O1`?
Answer: cell viability (HepG2 [1]; 1 nM): 95.4%; cell viability (HepG2 [1]; 10 nM): 89.8%; cell viability (HepG2 [1]; 100 nM): 93.6%; cell viability (HepG2 [1]; 1000 nM): 91.1%; cell viability (HepG2 [1]; 10000 nM): 95.5%; cell viability (Calu-3 [2]; 1 nM): 99.1%; cell viability (Calu-3 [2]; 10 nM): 89.6%; cell viability (Calu-3 [2]; 100 nM): 111%; cell viability (Calu-3 [2]; 1000 nM): 103%; cell viability (Calu-3 [2]; 10000 nM): 92.8%; cell viability (U2OS [3]; 1 nM): 93.3%; cell viability (U2OS [3]; 10 nM): 98%; cell viability (U2OS [3]; 100 nM): 96.6%; cell viability (U2OS [3]; 1000 nM): 98.5%; cell viability (U2OS [3]; 10000 nM): 89.6%; cell viability (Vero E6 [4]; 1 nM): 102%; cell viability (Vero E6 [4]; 10 nM): 101%; cell viability (Vero E6 [4]; 100 nM): 101%; cell viability (Vero E6 [4]; 1000 nM): 93.9%; cell viability (Vero E6 [4]; 10000 nM): 95.7%; cell viability (Caco-2 [5]; 1 nM): 94.5%; cell viability (Caco-2 [5]; 10 nM): 98.8%; cell viability (Caco-2 [5]; 100 nM): 95.3%; cell viability (Caco-2 [5]; 1000 nM): 103%; cell viability (Caco-2 [5]; 10000 nM): 85.8%; relative viability EC50 (HepG2 [6]): > 10 µM; relative viability EC50 (Calu-3 [7]): > 10 µM; relative viability EC50 (U2OS [8]): > 10 µM; relative viability EC50 (Vero E6 [9]): > 10 µM; relative viability EC50 (Caco-2 [10]): > 10 µM; drug sensitivity score (HepG2 [11]): 0; drug sensitivity score (Calu-3 [12]): 0; drug sensitivity score (U2OS [13]): 0; drug sensitivity score (Vero E6 [14]): 0; drug sensitivity score (Caco-2 [15]): 0.1

Question: How did the cell viability (HepG2 [1]; 1 nM) turn out when `CNC(=O)c1ccc2c(c1)CCO[C@H]2CCN1CCN(c2ccc(C(N)=O)cc2)CC1` was run?
Answer: The cell viability was 103%.

Question: What about the cell viability (HepG2 [1]; 10 nM) of the same compound?
Answer: Its cell viability is 104%.

Question: What about the cell viability (HepG2 [1]; 100 nM) of the same compound?
Answer: Its cell viability is 95.2%.

Question: And the cell viability (HepG2 [1]; 1000 nM)?
Answer: Its cell viability is 98.9%.

Question: And the cell viability (HepG2 [1]; 10000 nM)?
Answer: Its cell viability is 99.6%.

Question: And the cell viability (Calu-3 [2]; 1 nM)?
Answer: The cell viability was 99.7%.

Question: And the cell viability (Calu-3 [2]; 10 nM)?
Answer: Its cell viability is 81.1%.

Question: What about the cell viability (Calu-3 [2]; 100 nM) of the same compound?
Answer: Its cell viability is 95.2%.

Question: What about the cell viability (Calu-3 [2]; 1000 nM) of the same compound?
Answer: Its cell viability is 107%.

Question: What about the cell viability (Calu-3 [2]; 10000 nM) of the same compound?
Answer: The cell viability was 100%.

Question: And the cell viability (U2OS [3]; 1 nM)?
Answer: The cell viability was 99.5%.

Question: And the cell viability (U2OS [3]; 10 nM)?
Answer: Its cell viability is 106%.

Question: What about the cell viability (U2OS [3]; 100 nM) of the same compound?
Answer: The cell viability was 100%.

Question: And the cell viability (U2OS [3]; 1000 nM)?
Answer: The cell viability was 103%.

Question: What about the cell viability (U2OS [3]; 10000 nM) of the same compound?
Answer: The cell viability was 101%.

Question: And the cell viability (Vero E6 [4]; 1 nM)?
Answer: Its cell viability is 105%.

Question: And the cell viability (Vero E6 [4]; 10 nM)?
Answer: Its cell viability is 102%.

Question: And the cell viability (Vero E6 [4]; 100 nM)?
Answer: Its cell viability is 104%.

Question: And the cell viability (Vero E6 [4]; 1000 nM)?
Answer: Its cell viability is 99.1%.

Question: And the cell viability (Vero E6 [4]; 10000 nM)?
Answer: Its cell viability is 107%.

Question: What about the cell viability (Caco-2 [5]; 1 nM) of the same compound?
Answer: Its cell viability is 94.9%.

Question: What about the cell viability (Caco-2 [5]; 10 nM) of the same compound?
Answer: Its cell viability is 105%.

Question: What about the cell viability (Caco-2 [5]; 100 nM) of the same compound?
Answer: Its cell viability is 91.9%.

Question: And the cell viability (Caco-2 [5]; 1000 nM)?
Answer: The cell viability was 102%.

Question: What about the cell viability (Caco-2 [5]; 10000 nM) of the same compound?
Answer: The cell viability was 97.1%.

Question: And the “relative viability EC50” value (HepG2 [6])?
Answer: Its value is > 10 µM.

Question: And the “relative viability EC50” value (Calu-3 [7])?
Answer: Its value is > 10 µM.

Question: What about the “relative viability EC50” value (U2OS [8]) of the same compound?
Answer: The value was > 10 µM.

Question: And the “relative viability EC50” value (Vero E6 [9])?
Answer: Its value is > 10 µM.

Question: And the “relative viability EC50” value (Caco-2 [10])?
Answer: Its value is > 10 µM.

Question: And the drug sensitivity score (HepG2 [11])?
Answer: Its drug sensitivity score is 0.

Question: And the drug sensitivity score (Calu-3 [12])?
Answer: Its drug sensitivity score is 0.

Question: And the drug sensitivity score (U2OS [13])?
Answer: The drug sensitivity score was 0.

Question: And the drug sensitivity score (Vero E6 [14])?
Answer: Its drug sensitivity score is 0.

Question: What about the drug sensitivity score (Caco-2 [15]) of the same compound?
Answer: Its drug sensitivity score is 0.
